Results as given in patent publication US20250276089A1, “CO-DELIVERY OF INHIBITORY NUCLEIC ACIDS AND GENOME EDITORS FOR TUMOR THERAPY” (The Board of Regents of The University of Texas System, priority 2022, published 2025).

Test system: tumor cells
Assay: mRNA delivery efficacy in tumor cells treated with an FAK inhibitor plus siCtrl+mRNA-LNPs
Assay type: cell-based
Conditions: co-administered with siCtrl+mRNA-LNPs

## CS(=O)(=O)c1cccc(CNc2nc(Nc3ccc4c(c3)CCC(=O)N4)ncc2C(F)(F)F)c1 [FAK inhibitor, PF-573228]
  mRNA delivery efficacy and protein expression: enhanced
